Measured values as given in patent US4443466A, “4-Benzyl- and 4-benzoyl-substituted imidazole derivatives and use as medicaments” (priority 1980, dated 1984).
Like-named read-outs stand apart in the source and are kept apart here.

Key:
[1] = tested on: carrageenan-induced oedema; test: Inhibition of carrageenan-induced oedema; assay type: in vivo, rat; conditions: for inhibition in vivo at 100 mg/kg: po, read-out: inhibition carrageenan-induced oedema (%);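 on Anti-inflammatory activity: ++ means marked effect and + means moderate effect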
Description: The anti-inflammatory activity of the compounds of the invention was determined by inhibition of the carrageenan induced oedema in rats by the compounds examined (Winter C. A. et al., Proc. Soc. Exp. Biol. Med. 111:544, 1962).

[2] = tested on: acetic acid-induced writhing; test: Writhing test (acetic acid); assay type: in vivo, rat;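 on Analgesic activity: ++ means marked effect and + means moderate effect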
Description: (§1) The analgesic activity of the compounds of formula (I) was tested in the following manner: […]
The compounds studied and saline were administered p.o. to rats. Forty-five minutes later, 1 ml of 1% acetic acid was administered i.p. The number of writhes was recorded in the following 25 minute period (Koster et al: Fed. Proc. 18:412, 1959).

[3] = tested on: anesthetized Sprague-Dawley rats (blood pressure, pulse frequency); test: Blood pressure and pulse frequency in anesthetized normal-weight Sprague-Dawley rats (i.v.); assay type: in vivo, rat (Sprague-Dawley); conditions: for anti-hypertensive effect: tested as above; for minimal effective dose: Rattus norvegicus, iv
Description: The anti-hypertensive properties of the imidazole derivatives of the present invention have been determined according to the following procedure. Sprague-Dawley rats of normal weight were first anesthetized with urethane. After this, the femoral artery was connected by way of a polyethylene tube with a blood pressure transducer. The test substance was then injected into the femoral vein and the blood pressure and the pulse frequency were registered with a recorder. The minimum doses producing a significant change were found, i.e. ± at least 20% in the case of blood pressure, and ± at least 3% in the case of pulse frequency.

[4] = tested on: indomethacin-induced ulcers; test: Preventive effect on formation of indomethacin-induced ulcers; assay type: in vivo, rat (female Sprague-Dawley); conditions: for ED50: Rattus norvegicus, ip, 4 h, read-out: ED50 (ulcer prevention)
[5] = Acute toxicity in female NMRI mice, i.v.; conditions: in vivo, iv, mouse
Description: Acute toxicity was determined by using female mice of NMRI-Strain with an age of about 7 months and weighing 30-40 g. The administration of the test compound was i.v.

[6] = Preventive effect on formation of indomethacin-induced ulcers; assay type: in vivo, rat (female Sprague-Dawley); conditions: rat, in vivo, iv; LD50 (mouse, i.v.) / ED50 (ulcer); read-out: Therapeutic Index
[7] = tested on: rats (motility, muscle tone, catalepsia); test: Tranquilizing activity: Irwin screen in rats; assay type: in vivo, rat; conditions: 1.0 mg/kg
Description: (§2) The tranquilizing activity of the compounds was determined by the following methods:
(1) Irwin screen in rats (Irwin S., Psychopharmacologia 13:222, 1968)
Especially sedatory and cataleptic activity and effects on muscle tone are observed.

[8] = tested on: cattle (avoidance, muscle tone); test: Tranquilizing or taming effect on cattle; assay type: in vivo; conditions: 0.1 mg/kg i.m.
Description: as §2
(2) Tranquilizing or taming effect on cattle:
The test compounds were administered i.m. to cattle, mostly to heifers (150-200 kg).
The most suitable tranquilized state of an animal includes the ability to retain the upright position and coordination with minimal avoidance reactions to painful stimuli and handling. Thus, a combination of sedative and analgesic potency is required.

[9] = tested on: male mice on a 55° C. hot plate; test: Hot plate test; assay type: in vivo, mouse (male); conditions: for Analgesic activity: 1.5 mg/kg; for change in vivo at 1.5 mg/kg: Mus musculus, ip, 0.5 h, 1.5 mg/kg i.p., read-out: increase in HP-time (%)
Description: as §1
Test compounds or saline were given i.p. to male mice. Thirty minutes thereafter, the time for which the mice remained on a 55° C. plate was recorded. The results are expressed as compared to saline.

[10] = read-out: Blood Pressure Minimum Dose having a significant lowering effect
[11] = read-out: Pulse frequency Minimum Dose having a significant lowering effect

## COC(c1c[nH]cn1)c1c(C)cccc1C (stereo not drawn) [4-[α-(2',6'-Dimethylphenyl)]methoxymethylimidazole]
[1]; 100 mg/kg p.o. in the rat
  Anti-inflammatory activity: +
[1]; Rattus norvegicus
  inhibition in vivo at 100 mg/kg: 40%
[2]; 100 mg/kg
  Analgesic activity: +
[2]; 100 mg/kg p.o.
  W-number: 13

## Cc1ccccc1C(=O)c1nc[nH]c1C [5-methyl-4-(2'-methylbenzoyl)imidazole, 5-Methyl-4-(2'-methylbenzoyl)imidazole]
[1]; 100 mg/kg p.o. in the rat
  Anti-inflammatory activity: +
  inhibition in vivo at 100 mg/kg: 44%

## Cc1ccc(C(O)c2c[nH]cn2)cc1 (stereo not drawn) [4-[α-(4'-Methylphenyl)]hydroxymethylimidazole]
[1]; 100 mg/kg p.o. in the rat
  Anti-inflammatory activity: +
[1]; Rattus norvegicus
  inhibition in vivo at 100 mg/kg: 38%
[2]; 100 mg/kg
  Analgesic activity: ++
[2]; 100 mg/kg p.o.
  W-number: 0.6

## Cc1cccc(C)c1Cc1nc[nH]c1C [5-Methyl-4-(2',6'-dimethylbenzyl)imidazole]
[3]
  anti-hypertensive effect: no anti-hypertensive effect was found
[4]; 0.5 mg/kg
  prevention of the formation of ulcers: partly prevented the formation of ulcers
[4]; 5 mg/kg
  prevention of the formation of ulcers: prevented them completely
[5]
  LD50: 27 mg/kg

## CCOC(c1c[nH]cn1)c1c(C)cccc1C (stereo not drawn) [4-[α-(2',6'-Dimethylphenyl)]ethoxymethylimidazole]
[1]; 100 mg/kg p.o. in the rat
  Anti-inflammatory activity: +
[1]; Rattus norvegicus
  inhibition in vivo at 100 mg/kg: 35%
[2]; 100 mg/kg
  Analgesic activity: ++
[2]; 100 mg/kg p.o.
  W-number: 0.6
[3]
  anti-hypertensive effect: only a very slight anti-hypertensive effect
[4]; 0.5 mg/kg
  prevention of the formation of ulcers: prevented them partly
[4]; 5 mg/kg
  prevention of the formation of ulcers: completely prevented the formation of ulcers
[5]
  LD50: 45 mg/kg

## CCc1cccc(CC)c1Cc1c[nH]cn1 [4-(2',6'-diethylbenzyl)imidazole]
[3]; [10]
  minimal effective dose: 0.03 to 0.2 mg/kg
[3]; [11]
  minimal effective dose: 0.03 mg/kg

## Cc1cc(C)c(Cc2c[nH]cn2)c(C)c1 [4-(2',4',6'-trimethylbenzyl)imidazole, 4-(2',4',6'-Trimethylbenzyl)imidazole]
[3]; [10]
  minimal effective dose: 0.05 to 0.2 mg/kg
[3]; [11]
  minimal effective dose: 0.03 mg/kg
[4]
  ED50: 0.03 mg/kg
[6]
  selectivity ratio: 2100
[7]
  catalepsia: +
  decrease of motility: ++
[8]
  loss of avoidance: +
  loss of muscle tone: +
[5]
  LD50: 63 mg/kg

## Cc1ccc(Cc2c[nH]cn2)c(C)c1 [4-(2',4'-dimethylbenzyl)imidazole, 4-(2',4'-Dimethylbenzyl)imidazole]
[1]; 100 mg/kg p.o. in the rat
  Anti-inflammatory activity: ++
[1]; Rattus norvegicus
  inhibition in vivo at 100 mg/kg: 76%
[2]; 100 mg/kg
  Analgesic activity: ++
[2]; 100 mg/kg p.o.
  W-number: 0
[4]
  ED50: 0.03 mg/kg
[6]
  selectivity ratio: 2170
[9]
  Analgesic activity: +
  change in vivo at 1.5 mg/kg: 200%
[5]
  LD50: 65 mg/kg

## COc1ccccc1C(O)c1c[nH]cn1 (stereo not drawn) [4-[α-(2'-Methoxyphenyl)]hydroxymethylimidazole]
[1]; 100 mg/kg p.o. in the rat
  Anti-inflammatory activity: ++
[1]; Rattus norvegicus
  inhibition in vivo at 100 mg/kg: 69%
[2]; 100 mg/kg
  Analgesic activity: +
[2]; 100 mg/kg p.o.
  W-number: 2.5
[3]; [10]
  minimal effective dose: 0.3 to 1 mg/kg
[3]; [11]
  minimal effective dose: 1 mg/kg

## Cc1ccc(C(O)c2c[nH]cn2)c(C)c1 (stereo not drawn) [4-[α-(2',4'-Dimethylphenyl)]hydroxymethylimidazole]
[2]; 100 mg/kg
  Analgesic activity: +
[2]; 100 mg/kg p.o.
  W-number: 1.3

## Cc1ccccc1Cc1c[nH]cn1 [4-(2'-methylbenzyl)imidazole, 4-(2'-Methylbenzyl)imidazole]
[3]; 0.5 mg/kg i.v., 30 minutes after administration
  lowering of blood pressure: 10%
[3]; [10]
  minimal effective dose: 0.01 to 0.1 mg/kg
[3]; [11]
  minimal effective dose: 0.1 to 1 mg/kg
[4]; 5 μg/kg i.p.
  prevention of the formation of ulcers: complete prevention of the formation of ulcers
[4]
  ED50: 0.005 mg/kg
[6]
  selectivity ratio: 5000
[9]
  Analgesic activity: +
  change in vivo at 1.5 mg/kg: 200%
[5]
  LD50: 25 mg/kg

## CCc1cccc(CC)c1C(O)c1c[nH]cn1 (stereo not drawn) [4-[α-(2',6'-diethylphenyl)]hydroxymethylimidazole]
[3]; [10]
  minimal effective dose: 0.3 to 1 mg/kg
[3]; [11]
  minimal effective dose: 0.3 to 1 mg/kg

## Cc1cccc(C)c1C(=O)c1c[nH]cn1 [4-(2',6'-dimethylbenzoyl)imidazole, 4-(2',6'-Dimethylbenzoyl)imidazole]
[3]
  anti-hypertensive effect: only a very slight anti-hypertensive effect
[4]; 10 mg/kg
  prevention of the formation of ulcers: prevented them partially
[4]; 20 mg/kg
  prevention of the formation of ulcers: prevented completely the formation of ulcers
[5]
  LD50: > 100 mg/kg

## CCc1ccccc1C(O)c1c[nH]cn1 (stereo not drawn) [4-[α-(2'-Ethylphenyl)]hydroxymethylimidazole]
[1]; 100 mg/kg p.o. in the rat
  Anti-inflammatory activity: ++
[1]; Rattus norvegicus
  inhibition in vivo at 100 mg/kg: 73%
[2]; 100 mg/kg
  Analgesic activity: ++
[2]; 100 mg/kg p.o.
  W-number: 0
[9]
  Analgesic activity: +
  change in vivo at 1.5 mg/kg: 300%

## Cc1cccc(Cc2c[nH]cn2)c1 [4-(3'-methylbenzyl)imidazole, 4-(3'-Methylbenzyl)imidazole]
[1]; 100 mg/kg p.o. in the rat
  Anti-inflammatory activity: +
[1]; Rattus norvegicus
  inhibition in vivo at 100 mg/kg: 61%
[2]; 30 mg/kg
  Analgesic activity: ++
[2]; 30 mg/kg p.o.
  W-number: 0
[4]
  ED50: 0.02 mg/kg
[6]
  selectivity ratio: 1900
[9]
  change in vivo at 1.5 mg/kg: 50%
[8]
  loss of avoidance: +
[5]
  LD50: 38 mg/kg

## Cc1cccc(C(O)c2c[nH]cn2)c1C (stereo not drawn) [4-[α-(2',3'-Dimethylphenyl)]hydroxymethylimidazole]
[1]; 100 mg/kg p.o. in the rat
  Anti-inflammatory activity: +
[1]; Rattus norvegicus
  inhibition in vivo at 100 mg/kg: 52%
[2]; 100 mg/kg
  Analgesic activity: ++
[2]; 100 mg/kg p.o.
  W-number: 0
[9]
  Analgesic activity: ++
  change in vivo at 1.5 mg/kg: 400%

## CCc1ccccc1Cc1c[nH]cn1 [4-(2'-ethylbenzyl)imidazole, 4-(2'-Ethylbenzyl)imidazole]
[4]
  ED50: 0.005 mg/kg
[6]
  selectivity ratio: 6800
[9]
  Analgesic activity: +
  change in vivo at 1.5 mg/kg: 150%
[5]
  LD50: 34 mg/kg

## COc1cccc(C(O)c2c[nH]cn2)c1 (stereo not drawn) [4-[α-(3'-Methoxyphenyl)]hydroxymethylimidazole]
[1]; 100 mg/kg p.o. in the rat
  Anti-inflammatory activity: ++
[1]; Rattus norvegicus
  inhibition in vivo at 100 mg/kg: 71%
[2]; 100 mg/kg
  Analgesic activity: ++
[2]; 100 mg/kg p.o.
  W-number: 0

## Cc1cccc(C)c1C(O)c1nc[nH]c1C (stereo not drawn) [5-Methyl-4-[α-(2',6'-dimethylphenyl)]hydroxymethylimidazole]
[1]; 100 mg/kg p.o. in the rat
  Anti-inflammatory activity: +
  inhibition in vivo at 100 mg/kg: 52%
[2]; 100 mg/kg
  Analgesic activity: +
[2]; 100 mg/kg p.o.
  W-number: 13

## COc1ccc(C(O)c2c[nH]cn2)cc1 (stereo not drawn) [4-[α-(4'-Methoxyphenyl)]hydroxymethylimidazole]
[2]; 100 mg/kg
  Analgesic activity: +
[2]; 100 mg/kg p.o.
  W-number: 1.9

## Cc1ccccc1Cc1nc[nH]c1C [5-methyl-4-(2'-methylbenzyl)imidazole, 5-Methyl-4-(2'-methylbenzyl)imidazole]
[1]; 100 mg/kg p.o. in the rat
  Anti-inflammatory activity: +
  inhibition in vivo at 100 mg/kg: 44%
[2]; 30 mg/kg
  Analgesic activity: +
[2]; 30 mg/kg p.o.
  W-number: 43

## Cc1cccc(C(O)c2c[nH]cn2)c1 (stereo not drawn) [4-[α-(3'-Methylphenyl)]hydroxymethylimidazole]
[1]; 100 mg/kg p.o. in the rat
  Anti-inflammatory activity: +
[1]; Rattus norvegicus
  inhibition in vivo at 100 mg/kg: 34%
[2]; 100 mg/kg
  Analgesic activity: ++
[2]; 100 mg/kg p.o.
  W-number: 0

## Cc1ccccc1C(O)c1c[nH]cn1 (stereo not drawn) [4-[α-(2'-Methylphenyl)]hydroxymethylimidazole]
[1]; 100 mg/kg p.o. in the rat
  Anti-inflammatory activity: +
[1]; Rattus norvegicus
  inhibition in vivo at 100 mg/kg: 41%
[2]; 100 mg/kg
  Analgesic activity: ++
[2]; 100 mg/kg p.o.
  W-number: 0
[3]
  anti-hypertensive effect: no anti-hypertensive effect was found
[4]; 0.5 mg/kg
  prevention of the formation of ulcers: prevented them partly
[4]; 5 mg/kg
  prevention of the formation of ulcers: completely prevented the formation of ulcers
[5]
  LD50: 160 mg/kg

## Clc1cccc(Cl)c1Cc1cnc[nH]1 [4-(2',6'-dichlorobenzyl)imidazole, 4-(2',6'-Dichlorobenzyl)imidazole]
[3]; [10]
  minimal effective dose: 0.03 to 0.1 mg/kg
[3]; [11]
  minimal effective dose: 0.03 to 0.1 mg/kg
[4]
  ED50: 0.03 mg/kg
[6]
  selectivity ratio: 1600
[5]
  LD50: 48 mg/kg

## Cc1ccccc1C(O)c1nc[nH]c1C (stereo not drawn) [5-Methyl-4-[α-(2'-methylphenyl)]hydroxymethylimidazole]
[1]; 100 mg/kg p.o. in the rat
  Anti-inflammatory activity: +
  inhibition in vivo at 100 mg/kg: 67%

## Cc1ccc(C(=O)c2c[nH]cn2)cc1 [4-(4'-methylbenzoyl)imidazole, 4-(4'-Methylbenzoyl)imidazole]
[1]; 100 mg/kg p.o. in the rat
  Anti-inflammatory activity: +
  inhibition in vivo at 100 mg/kg: 40%
